Measurements: paper PMC4367896, “Microbial host selection affects intracellular localization and activity of alcohol-O-acetyltransferase” (Microbial Cell Factories, 2015)

What was measured:
Settings in all cases: 500 mM ethanol, 0.5 mM acetyl-CoA, pH 7.4, 30 °C
[1] = target: T1, Atf-P.a (Hansenula anomala, UniProt H6UWN0); assay: headspace GC of ethyl acetate, whole cell lysate; format: biochemical
T1 construct: gene WAN_10494; C-terminal GFP fusion (reporter); expressed in S. cerevisiae (pYPAG) and E. coli BL21(DE3) (pPAG)
T1 sequence (H6UWN0 1-427): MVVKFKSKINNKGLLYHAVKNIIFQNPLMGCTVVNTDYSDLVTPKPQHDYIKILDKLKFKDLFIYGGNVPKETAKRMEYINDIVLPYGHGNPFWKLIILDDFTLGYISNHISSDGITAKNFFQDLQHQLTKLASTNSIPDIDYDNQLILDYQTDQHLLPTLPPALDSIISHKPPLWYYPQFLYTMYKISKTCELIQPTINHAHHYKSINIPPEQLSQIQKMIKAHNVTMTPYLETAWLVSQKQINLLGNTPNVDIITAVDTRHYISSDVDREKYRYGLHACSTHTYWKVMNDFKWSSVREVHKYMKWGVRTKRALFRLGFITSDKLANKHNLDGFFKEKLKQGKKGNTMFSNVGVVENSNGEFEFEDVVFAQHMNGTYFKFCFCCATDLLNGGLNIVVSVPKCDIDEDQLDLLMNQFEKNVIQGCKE

[2] = target: T2, Atf-S.l (Solanum lycopersicum, UniProt Q6QLX4); assay: headspace GC of ethyl acetate, whole cell lysate; format: biochemical
T2 construct: gene AAT1; C-terminal GFP fusion (reporter); expressed in S. cerevisiae (pYSLG) and E. coli BL21(DE3) (pSLG); N-terminus from primer MANILPI
T2 sequence (Q6QLX4 1-442): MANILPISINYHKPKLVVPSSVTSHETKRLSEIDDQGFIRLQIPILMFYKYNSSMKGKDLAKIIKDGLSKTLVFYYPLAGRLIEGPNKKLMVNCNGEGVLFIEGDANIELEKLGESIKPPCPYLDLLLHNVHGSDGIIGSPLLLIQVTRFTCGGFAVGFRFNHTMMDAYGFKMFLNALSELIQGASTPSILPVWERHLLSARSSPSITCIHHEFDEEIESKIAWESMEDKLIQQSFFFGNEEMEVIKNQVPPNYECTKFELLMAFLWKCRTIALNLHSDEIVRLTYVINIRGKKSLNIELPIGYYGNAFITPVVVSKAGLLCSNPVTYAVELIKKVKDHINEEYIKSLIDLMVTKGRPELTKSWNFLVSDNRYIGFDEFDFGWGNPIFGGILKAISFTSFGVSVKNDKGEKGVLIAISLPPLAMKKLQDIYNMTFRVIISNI

[3] = target: T3, Atf1-S.c (Saccharomyces cerevisiae, UniProt P40353)
T3 sequence (P40353 1-525): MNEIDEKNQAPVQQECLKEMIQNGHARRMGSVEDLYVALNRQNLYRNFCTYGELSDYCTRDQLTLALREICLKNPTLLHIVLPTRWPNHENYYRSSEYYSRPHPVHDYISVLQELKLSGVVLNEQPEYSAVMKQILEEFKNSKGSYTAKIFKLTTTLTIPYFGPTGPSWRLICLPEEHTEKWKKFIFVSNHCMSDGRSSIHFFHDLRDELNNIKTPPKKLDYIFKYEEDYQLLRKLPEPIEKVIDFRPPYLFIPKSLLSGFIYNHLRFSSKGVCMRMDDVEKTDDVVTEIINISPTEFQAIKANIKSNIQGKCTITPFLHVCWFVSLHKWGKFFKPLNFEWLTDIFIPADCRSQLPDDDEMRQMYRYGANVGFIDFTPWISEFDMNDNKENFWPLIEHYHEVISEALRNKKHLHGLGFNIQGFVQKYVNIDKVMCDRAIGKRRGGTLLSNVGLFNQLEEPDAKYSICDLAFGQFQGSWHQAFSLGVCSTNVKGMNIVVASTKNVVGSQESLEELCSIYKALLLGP

[4] = target: T4, Atf-S.p (Saccharomyces pastorianus, UniProt Q12678); assay: headspace GC of ethyl acetate, whole cell lysate; format: biochemical
T4 construct: gene ATF1_2; C-terminal GFP fusion (reporter); expressed in S. cerevisiae (pYSPG) and E. coli BL21(DE3) (pSPG)
T4 sequence (Q12678 1-545): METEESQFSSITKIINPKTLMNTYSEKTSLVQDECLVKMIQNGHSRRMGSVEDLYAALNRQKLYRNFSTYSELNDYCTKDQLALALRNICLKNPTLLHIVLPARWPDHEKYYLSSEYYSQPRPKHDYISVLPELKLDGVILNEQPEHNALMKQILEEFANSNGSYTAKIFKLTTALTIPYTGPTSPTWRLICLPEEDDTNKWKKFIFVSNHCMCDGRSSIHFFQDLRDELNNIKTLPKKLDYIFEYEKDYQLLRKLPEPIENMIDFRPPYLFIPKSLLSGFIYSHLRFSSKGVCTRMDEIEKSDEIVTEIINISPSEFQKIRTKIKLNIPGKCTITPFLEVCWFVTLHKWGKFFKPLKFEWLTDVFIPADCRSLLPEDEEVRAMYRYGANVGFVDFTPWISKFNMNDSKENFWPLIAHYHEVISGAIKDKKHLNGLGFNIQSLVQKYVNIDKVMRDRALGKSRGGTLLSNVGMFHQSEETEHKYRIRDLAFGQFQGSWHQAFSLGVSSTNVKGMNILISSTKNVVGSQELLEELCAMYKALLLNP

[5] = target: T5, Atf2-S.c (Saccharomyces cerevisiae, UniProt P53296)
T5 sequence (P53296 1-535): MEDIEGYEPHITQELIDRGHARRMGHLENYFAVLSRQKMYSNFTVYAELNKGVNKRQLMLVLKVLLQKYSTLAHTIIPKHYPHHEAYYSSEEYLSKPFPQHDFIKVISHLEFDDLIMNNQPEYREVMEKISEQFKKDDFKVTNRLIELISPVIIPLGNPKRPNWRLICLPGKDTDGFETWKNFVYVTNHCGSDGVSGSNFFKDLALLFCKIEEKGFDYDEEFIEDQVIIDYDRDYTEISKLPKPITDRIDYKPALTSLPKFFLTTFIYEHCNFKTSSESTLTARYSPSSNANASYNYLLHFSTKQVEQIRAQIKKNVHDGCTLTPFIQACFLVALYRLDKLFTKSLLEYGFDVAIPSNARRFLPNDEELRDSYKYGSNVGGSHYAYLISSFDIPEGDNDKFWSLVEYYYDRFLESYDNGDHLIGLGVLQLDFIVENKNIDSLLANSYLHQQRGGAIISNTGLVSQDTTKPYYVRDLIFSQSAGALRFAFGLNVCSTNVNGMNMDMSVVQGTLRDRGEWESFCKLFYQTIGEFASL

[6] = target: T6, Atf-K.l (Kluyveromyces lactis, UniProt Q6CJX7); assay: headspace GC of ethyl acetate, whole cell lysate; format: biochemical
T6 construct: gene KLLA0_F15202g; C-terminal GFP fusion (reporter); expressed in S. cerevisiae (pYKLG) and E. coli BL21(DE3) (pKLG)
T6 sequence (Q6CJX7 1-517): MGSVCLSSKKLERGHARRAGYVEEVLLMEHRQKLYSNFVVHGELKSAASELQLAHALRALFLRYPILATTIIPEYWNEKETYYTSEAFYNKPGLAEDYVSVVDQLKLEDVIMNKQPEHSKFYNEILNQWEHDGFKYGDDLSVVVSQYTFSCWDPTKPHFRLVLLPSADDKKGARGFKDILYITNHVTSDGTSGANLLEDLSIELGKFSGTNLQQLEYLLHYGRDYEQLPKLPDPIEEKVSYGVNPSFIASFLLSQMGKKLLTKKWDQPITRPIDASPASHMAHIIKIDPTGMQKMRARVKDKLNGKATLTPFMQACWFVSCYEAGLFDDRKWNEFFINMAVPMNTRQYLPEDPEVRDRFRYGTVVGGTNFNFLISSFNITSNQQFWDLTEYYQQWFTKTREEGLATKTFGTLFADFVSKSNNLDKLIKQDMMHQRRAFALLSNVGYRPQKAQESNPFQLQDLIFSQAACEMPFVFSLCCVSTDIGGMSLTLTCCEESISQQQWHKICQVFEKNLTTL

Compound: CC(=O)SCCNC(=O)CCNC(=O)[C@H](O)C(C)(C)COP(=O)(O)OP(=O)(O)OC[C@H]1O[C@@H](n2cnc3c(N)ncnc32)[C@H](O)[C@@H]1OP(=O)(O)O [acetyl-CoA]
- headspace GC of ethyl acetate, whole cell lysate [1]: AATase activity was measured using ethanol and acetyl-CoA as substrates
- headspace GC of ethyl acetate, whole cell lysate [2]: AATase activity was measured using ethanol and acetyl-CoA as substrates
- headspace GC of ethyl acetate, whole cell lysate [3]: AATase activity was measured using ethanol and acetyl-CoA as substrates
- headspace GC of ethyl acetate, whole cell lysate [4]: AATase activity was measured using ethanol and acetyl-CoA as substrates
- headspace GC of ethyl acetate, whole cell lysate [5]: AATase activity was measured using ethanol and acetyl-CoA as substrates
- headspace GC of ethyl acetate, whole cell lysate [6]: AATase activity was measured using ethanol and acetyl-CoA as substrates
